Experimental findings from patent US4897417A, “Prodrugs of 3,4-hydroxy benzoyloxypropanolamines” (E. I. Du Pont de Nemours & Co., priority 1988, dated 1990) are described below.

In data set [1] the test system is isoproterenol-induced increase in heart rate. Briefly: Effect on systemic beta-blockade upon topical administration (isoproterenol-induced heart rate in anesthetized dogs). It counts as in vivo, Mongrel dogs. To be noted: for HR, ISO only: 0 min (dose), isoproterenol only, before treatment; for HR, ISO only / HR, baseline: 0.125% group; for HR: 0.125% topical, isoproterenol infusion 0.5 μg/kg/min; for HR, baseline: -30 min, before isoproterenol and before treatment; for systemic beta-blockade of isoproterenol-induced increase in heart rate / effect on the heart rate responses to isoproterenol: in words, 50 μL, 0.125% solution; for effect on the heart rate responses to isoproterenol: topical; for drop in heart rate: within 60 minutes, 0.125% concentration. As for the experimental part:
Mongrel dogs were anesthetized and control readings were made at -45 and -30 minutes. Following the -30 minute reading, an infusion of isoproterenol (0.5 μg/kg/min) was begun and maintained during the course of the experiment. Two readings of pretreatment isoproterenol responses were made at […] and at zero minutes. At zero minutes, a 50 μL sample of test compound was administered topically. This dose was repeated at 50, 60 and 90 minutes and the animal was monitored for heart rate for 180 minutes following the first application. Heart rate was obtained directly from the strip chart recording.

For data set [2] the test system is unchanged. Described as above. To be noted: 120 min (dose) post-treatment, 0.125% topical, isoproterenol infusion 0.5 μg/kg/min. It counts as in vivo, Mongrel dogs.
A short description of data set [3]: Ocular bioavailability in rabbits (aqueous humor levels after topical corneal dosing). It counts as in vivo, New Zealand White Rabbits. As to conditions: for area under the AH concentration time curve (AUC0-240'): 50 μL of 0.25% Timolol or 0.5% compound 8d; for absorption in the eye: topical. As for the experimental part: The ocular bioavailability of Timolol and compound 8d (dipivaloyl ester prodrug of compound 9d) was evaluated in New Zealand White Rabbits. Fifty μL of a solution of 0.25% Timolol or 0.5% compound 8d (both in the same vehicle) were administered onto the cornea of both eyes of 48 rabbits (24 rabbits/compound). At 5, 15, 30, 60, 120, 180, 240, and 360 minutes after dosing, 3 rabbits (6 eyes) per compound were killed. Aqueous humor (AH), was quickly removed from the eyes, weighed and processed to determine tissue levels of Timolol or compound 8d and compound 9d.

For `Cc1cc(OC(=O)C(C)(C)C)c(OC(=O)C(C)(C)C)cc1C(=O)OCC(O)CNC(C)(C)CNC(N)=O` (stereo not drawn) [Compound 8c], the “HR, ISO only” value in data set [1] is reported as 212 bpm. The HR in data set [1] (15 min post-treatment) amounted to 212 bpm; in data set [1] (30 min post-treatment), 210 bpm; in data set [1] (45 min post-treatment), 210 bpm; in data set [1] (60 min (dose) post-treatment) it was 210 bpm; in data set [1] (90 min post-treatment) it was 210 bpm; in data set [1] (150 min post-treatment), 212 bpm. Moreover, the HR in data set [2] stood at 210 bpm. Further, the “HR, baseline” value in data set [1] turned out to be 158 bpm. Further, the “systemic beta-blockade of isoproterenol-induced increase in heart rate” value in data set [1] is “no systemic beta-blockade”. Also, the “effect on the heart rate responses to isoproterenol” value (“effect on the heart rate responses” for short) in data set [1] is “no effect”. Moreover, the “drop in heart rate” value in data set [1] came to 7 bpm.
In the case of `CC(=O)NCC(C)(C)NCC(O)COC(=O)c1cc(OC(=O)C(C)(C)C)c(OC(=O)C(C)(C)C)cc1C` (stereo not drawn) [Compound 8a], the “HR, ISO only” value in data set [1] is 215 bpm. Also, the HR is on record as 214 bpm in data set [1] (15 min post-treatment); 213 bpm in data set [1] (30 min post-treatment); 210 bpm in data set [1] (45 min post-treatment); 208 bpm in data set [1] (60 min (dose) post-treatment); 207 bpm in data set [1] (90 min post-treatment); 202 bpm in data set [1] (150 min post-treatment). The molecule also returned an HR in data set [2] of 203 bpm. The “HR, baseline” value in data set [1] came out at 152 bpm. Also, the “systemic beta-blockade of isoproterenol-induced increase in heart rate” value in data set [1] was “no systemic beta-blockade”. Also, the “effect on the heart rate responses” value in data set [1] is given as “no effect”. For the same molecule, the “drop in heart rate” value in data set [1] was 2 bpm.
Consider `Cc1cc(OC(=O)C(C)(C)C)c(OC(=O)C(C)(C)C)cc1C(=O)OCC(O)CNC(C)(C)CNC(=O)C1CCOC1` (stereo not drawn) [Compound 8d], for which the “area under the AH concentration time curve (AUC0-240')” value in data set [3] (aqueous humor, rabbits) is given as 27,377 ng/100 μL/min. In addition, in data set [3] (aqueous humor, rabbits, after 0.25% Timolol or 0.5% compound 8d), the “AUC of compound 8d in AH relative to AUC of Timolol in AH” value is listed as 3 ×. For the same molecule, in data set [3] (in words, rabbits), the “absorption in the eye” value is “rapidly absorbed in the eye”. For the same molecule, the “delivery of compound 9d to the internal structures of the eye” value in data set [3] (in words, rabbits, topical compound 8d) is recorded as “effectively delivers compound 9d to the internal structures of the eye”.
`CC(C)(C)NC[C@H](O)COc1nsnc1N1CCOCC1` [Timolol, reference compound]: the “HR, ISO only” value in data set [1] turned out to be 213 bpm. Also, the HR was 198 bpm in data set [1] (15 min post-treatment); 185 bpm in data set [1] (30 min post-treatment); 174 bpm in data set [1] (45 min post-treatment); 174 bpm in data set [1] (60 min (dose) post-treatment); 179 bpm in data set [1] (90 min post-treatment); 192 bpm in data set [1] (150 min post-treatment). The molecule also returned an HR in data set [2] of 183 bpm. In addition, in data set [1], the “HR, baseline” value was 142 bpm. The “effect on the heart rate responses” value in data set [1] is “significant inhibitory effect”. Moreover, in data set [1], the “drop in heart rate” value is on record as 39 bpm. Besides, the “area under the AH concentration time curve (AUC0-240')” value in data set [3] (aqueous humor, rabbits) is listed as 9,022 ng/100 μL/min. For the same molecule, in data set [3] (in words, rabbits), the “absorption in the eye” value is listed as “rapidly absorbed in the eye”.
With `Cc1cc(O)c(O)cc1C(=O)OCC(O)CNC(C)(C)CNC(=O)C1CCOC1` (stereo not drawn) [Compound 9d], the “stability in rabbit ocular tissues” value in data set [3] (in words) is “stable in rabbit ocular tissues”.
